Literature values, collected in patent publication US6649649B1, “Method of treating colonic adenomas” (Merck & Co., Inc., priority 1995, dated 2003).

Columns and labels:
incident colon cancer = settings: persons who regularly used aspirin compared to those who used no aspirin
sporadic colonic polyps = settings: early sporadic polyps (67% of the polyps were <5 mm)
[1] = test system: polyps in patients with familial polyposis

In the case of `CS(=O)(=O)Nc1ccc([N+](=O)[O-])cc1OC1CCCCC1` [NS-398], the analgesic effect (rat) is given as “analgesic effects”, the antiinflammatory effect (rat) is given as “antiinflammatory” and the antipyretic effect (rat) is given as “antipyretic”. The ulcerogenicity (rat) was “without being ulcerogenic” and the “selectivity for inhibition of either PGHS-1 or PGHS-2” value (“selectivity for inhibition” for short) (PGHS-1 or PGHS-2) was “selective PGHS-2 inhibitor”.

For `CC(=O)Oc1ccccc1C(=O)O` [aspirin], the “lower risk of incident colon cancer” value (incident colon cancer) is listed as 40% and the “selectivity for inhibition” value (PGHS-1 or PGHS-2) is listed as “little selectivity”.

For `COc1ccc2c(c1)c(CC(=O)O)c(C)n2C(=O)c1ccc(Cl)cc1` [indomethacin], the “selectivity for inhibition” value (PGHS-1 or PGHS-2) is listed as “little selectivity”.

For `CC1=C(CC(=O)O)c2cc(F)ccc2/C1=C\c1ccc([S+](C)[O-])cc1` (centres unmarked) [sulindac], the “regression of sporadic colonic polyps” value (sporadic colonic polyps) is given as “did not result in a regression”, the polyp regression [1] is given as “results in polyp regression” and the “inhibition of PGHS-1 and PGHS-2” value (PGHS-1 or PGHS-2) is given as “inhibiting both PGHS-1 and PGHS-2”.
